From PubChem BioAssay AID248 (DTP/NCI, 2004) come the findings set out here.

Several values for one entry are separate records, joined by “and”; a condition that tells them apart may be missing. Equal entries are not always repeated. Toxic doses and inconclusive results are not listed.

In this experiment the test system is L1210 leukemia ip in BDF1 mice, survival T/C. The experiment is described as follows: NCI In Vivo Anticancer Drug Screen. Data for tumor model L1210 Leukemia (intraperitoneal) in B6D2F1 (BDF1) mice. The settings on record: endpoint: mean survival time, higher = longer survival. A digest of the protocol:
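Antitumor effect is assessed in tumor-bearing animals. Survival in the compound arm is compared with a vehicle-dosed control arm and expressed as their quotient.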

Setting [1] is: dose: 100.0 mg/kg/injection, schedule: Q01DX009 (ip), vehicle: saline with Tween-80.
The mark [2] stands for this setting: dose: 200.0 mg/kg/injection, schedule: Q01DX009 (ip), vehicle: saline with Tween-80.
Where [3] appears, read: dose: 100.0 mg/kg/injection, schedule: Q01DX009 (ip), vehicle: saline.
Setting [4] is: dose: 200.0 mg/kg/injection, schedule: Q01DX009 (ip), vehicle: saline.
Where [5] appears, read: dose: 200.0 mg/kg/injection, schedule: Q04DX003 (ip), vehicle: saline.
Where [6] appears, read: dose: 400.0 mg/kg/injection, schedule: Q04DX003 (ip), vehicle: saline.
The mark [7] stands for this setting: dose: 50.0 mg/kg/injection, schedule: Q01DX001 (ip), vehicle: Klucel (hydroxypropylcellulose) (HPC).
[8] abbreviates: dose: 100.0 mg/kg/injection, schedule: Q01DX001 (ip), vehicle: Klucel (hydroxypropylcellulose) (HPC).
[9] abbreviates: dose: 100.0 mg/kg/injection, schedule: Q04DX002 (ip), vehicle: Klucel (hydroxypropylcellulose) (HPC).
Setting [10] is: dose: 100.0 mg/kg/injection, schedule: Q04DX003 (ip), vehicle: Klucel (hydroxypropylcellulose) (HPC).
Where [11] appears, read: dose: 200.0 mg/kg/injection, schedule: Q04DX002 (ip), vehicle: Klucel (hydroxypropylcellulose) (HPC).
The mark [12] stands for this setting: dose: 50.0 mg/kg/injection, schedule: Q01DX009 (ip), vehicle: saline with Tween-80.
[13] abbreviates: dose: 100.0 mg/kg/injection, schedule: Q04DX003 (ip), vehicle: saline with Tween-80.
The mark [14] stands for this setting: dose: 200.0 mg/kg/injection, schedule: Q04DX003 (ip), vehicle: saline with Tween-80.
Setting [15] is: dose: 100.0 mg/kg/injection, schedule: Q04DX003 (ip), vehicle: saline.
Setting [16] is: dose: 100.0 mg/kg/injection, schedule: Q01DX001 (ip), vehicle: carboxymethylcellulose (CMC).
The mark [17] stands for this setting: dose: 200.0 mg/kg/injection, schedule: Q04DX003 (ip), vehicle: Klucel (hydroxypropylcellulose) (HPC).
Where [18] appears, read: dose: 400.0 mg/kg/injection, schedule: Q04DX003 (ip), vehicle: Klucel (hydroxypropylcellulose) (HPC).

On to `NC1=CCNN1`, for which the T/C runs as follows: (dose: 75.0 mg/kg/injection, schedule: Q01DX001 (ip), vehicle: saline) 106 % of control; (dose: 150.0 mg/kg/injection, schedule: Q01DX001 (ip), vehicle: saline) 93 % of control; (dose: 300.0 mg/kg/injection, schedule: Q01DX001 (ip), vehicle: saline) 94 % of control.
Consider `CC12OC3(C)C4C(=O)OC1C1(C)OC4(C)C3C(=O)OC21`, for which the T/C runs as follows: under setting [1], 102 % of control; under setting [2], 101 % of control; (dose: 400.0 mg/kg/injection, schedule: Q01DX009 (ip), vehicle: saline with Tween-80) 98 % of control.
With `Cc1c[nH]c(=O)[nH]1`, the T/C was 109 % of control (dose: 100.0 mg/kg/injection, schedule: Q04DX002 (ip), vehicle: saline); 106 % of control (dose: 200.0 mg/kg/injection, schedule: Q04DX002 (ip), vehicle: saline); 117 % of control (dose: 400.0 mg/kg/injection, schedule: Q04DX002 (ip), vehicle: saline).
In the case of `CN(C)C1=NC(=O)C(c2ccccc2)O1` (configuration not stated), the T/C is 104 % of control (dose: 25.0 mg/kg/injection, schedule: Q01DX009 (ip), vehicle: saline); 111 % of control (dose: 50.0 mg/kg/injection, schedule: Q01DX009 (ip), vehicle: saline); 101 % of control (dose: 50.0 mg/kg/injection, schedule: Q04DX003 (ip), vehicle: saline); 111 % of control under setting [3]; 101 % of control under setting [4]; 100 % of control under setting [5]. The T/C under setting [6] was 100 % of control.
Consider `CNC(=O)Oc1ccccc1C(=O)NCO`, for which the T/C is 97 % of control under setting [7]; 101 % of control and 107 % of control (dose: 50.0 mg/kg/injection, schedule: Q01DX009 (ip), vehicle: Klucel (hydroxypropylcellulose) (HPC)); 97 % of control (dose: 50.0 mg/kg/injection, schedule: Q04DX003 (ip), vehicle: Klucel (hydroxypropylcellulose) (HPC)); 101 % of control under setting [8]; 94 % of control and 101 % of control under setting [9]; 106 % of control under setting [10]. Also, the T/C under setting [11] is 98 % of control.
Turning to `COC(=O)C(c1ccccc1)C(O)c1ccccc1` (configuration not stated), the T/C (dose: 55.0 mg/kg/injection, schedule: Q01DX Z (ip), vehicle: methylcellulose (MC)) was 113 % of control; the T/C (dose: 83.0 mg/kg/injection, schedule: Q01DX Z (ip), vehicle: methylcellulose (MC)) is 94 % of control; the T/C (dose: 125.0 mg/kg/injection, schedule: Q01DX Z (ip), vehicle: methylcellulose (MC)) is 93 % of control.
Regarding `Cc1c(C)c(C)c(CNNC(=S)Nc2ccc(S(=O)(=O)N3CCCCC3)cc2)c(C)c1C`, the T/C under setting [9] is 104 % of control; the T/C under setting [11] is 92 % of control; the T/C (dose: 400.0 mg/kg/injection, schedule: Q04DX002 (ip), vehicle: Klucel (hydroxypropylcellulose) (HPC)) was 95 % of control.
Take `C1CN2CCC1CC2`: the T/C reads like this: (dose: 10.0 mg/kg/injection, schedule: Q01DX001 (ip), vehicle: saline) 93 % of control; under setting [12], 98 % of control; under setting [1], 97 % of control; under setting [13], 106 % of control; under setting [14], 93 % of control.
Take `CCNC(C)(C)C(Cl)c1cccs1` (configuration not stated): the T/C was 101 % of control under setting [3], 96 % of control under setting [15], 100 % of control under setting [4] and 93 % of control under setting [5].
Consider `O=C(CCC(=O)Nc1ccccc1)Nc1ccccc1`, for which the T/C under setting [16] was 96 % of control; the T/C (dose: 200.0 mg/kg/injection, schedule: Q01DX001 (ip), vehicle: carboxymethylcellulose (CMC)) was 102 % of control; the T/C (dose: 400.0 mg/kg/injection, schedule: Q01DX001 (ip), vehicle: carboxymethylcellulose (CMC)) is 102 % of control.
With `CCCCCCCC(=O)c1ccc(NC(C)=O)cc1`, the T/C is 103 % of control (dose: 100.0 mg/kg/injection, schedule: Q01DX009 (ip), vehicle: Klucel (hydroxypropylcellulose) (HPC)); 99 % of control under setting [10]; 95 % of control (dose: 200.0 mg/kg/injection, schedule: Q01DX009 (ip), vehicle: Klucel (hydroxypropylcellulose) (HPC)); 92 % of control under setting [17]; 102 % of control (dose: 400.0 mg/kg/injection, schedule: Q01DX009 (ip), vehicle: Klucel (hydroxypropylcellulose) (HPC)); 100 % of control under setting [18].
Consider `Cc1ccc(NC(=O)N(CCCl)N=O)cc1Cl`, for which the T/C is 112 % of control (dose: 0.5 mg/kg/injection, schedule: Q01DX009 (ip), vehicle: carboxymethylcellulose (CMC)); 117 % of control (dose: 1.0 mg/kg/injection, schedule: Q01DX009 (ip), vehicle: carboxymethylcellulose (CMC)); 120 % of control (dose: 13.0 mg/kg/injection, schedule: Q01DX001 (ip), vehicle: carboxymethylcellulose (CMC)); 159 % of control (dose: 13.0 mg/kg/injection, schedule: Q01DX007 (ip), vehicle: carboxymethylcellulose (CMC)); 164 % of control (dose: 14.0 mg/kg/injection, schedule: Q01DX009 (ip), vehicle: carboxymethylcellulose (CMC)); 229 % of control (dose: 29.0 mg/kg/injection, schedule: Q01DX001 (ip), vehicle: other). The T/C (dose: 33.0 mg/kg/injection, schedule: Q01DX009 (ip), vehicle: carboxymethylcellulose (CMC)) is 166 % of control; the T/C (dose: 44.0 mg/kg/injection, schedule: Q01DX001 (ip), vehicle: other) is 159 % of control; the T/C (dose: 44.4 mg/kg/injection, schedule: Q01DX001 (ip), vehicle: carboxymethylcellulose (CMC)) is 159 % of control; the T/C (dose: 66.6 mg/kg/injection, schedule: Q01DX001 (ip), vehicle: carboxymethylcellulose (CMC)) was 244 % of control; the T/C under setting [16] was 193 % of control; the T/C (dose: 150.0 mg/kg/injection, schedule: Q01DX001 (ip), vehicle: carboxymethylcellulose (CMC)) was 100 % of control.
As for `Cc1nc(N)[nH]c(=O)c1CCC(=O)O`, the T/C under setting [15] is 102 % of control and the T/C under setting [6] is 107 % of control.
For `[N-]=[N+]=NC1=CC(=O)C(c2ccccc2)=CC1=O`, the T/C by setting is: (dose: 100.0 mg/kg/injection, schedule: Q04DX002 (ip), vehicle: saline with Tween-80) 102 % of control; (dose: 200.0 mg/kg/injection, schedule: Q04DX002 (ip), vehicle: saline with Tween-80) 97 % of control.
Take `O=c1[nH]c(-c2ccccc2)nc2[nH]ncc12`: the T/C reads like this: under setting [10], 105 % of control; under setting [17], 92 % of control; under setting [18], 87 % of control.
As for `CN(N=O)C(=O)NCCCCNC(=O)N(C)N=O`, the T/C is 107 % of control (dose: 6.25 mg/kg/injection, schedule: Q01DX Z (ip), vehicle: carboxymethylcellulose (CMC)); 112 % of control (dose: 12.5 mg/kg/injection, schedule: Q01DX Z (ip), vehicle: carboxymethylcellulose (CMC)); 111 % of control (dose: 25.0 mg/kg/injection, schedule: Q01DX Z (ip), vehicle: carboxymethylcellulose (CMC)); 108 % of control (dose: 50.0 mg/kg/injection, schedule: Q01DX Z (ip), vehicle: carboxymethylcellulose (CMC)); 163 % of control (dose: 200.0 mg/kg/injection, schedule: Q01DX Z (ip), vehicle: carboxymethylcellulose (CMC)).
`Cc1nc(N)[nH]c(=O)c1CCCNC(=O)c1cccc(CBr)c1`: the T/C was 101 % of control under setting [7], 100 % of control under setting [8] and 102 % of control under setting [11].
Consider `S=C(NCc1ccccc1)Nc1ccccc1`, for which the T/C is, setting by setting: under setting [13], 96 % of control; under setting [14], 94 % of control.
Turning to `O=c1[nH]nc(-c2ccccn2)o1`, the T/C is, setting by setting: under setting [12], 97 % of control; under setting [1], 90 % of control; under setting [2], 97 % of control.
Take `Cc1[nH]c(=S)oc1C`: the T/C is, setting by setting: (dose: 75.0 mg/kg/injection, schedule: Q01DX001 (ip), vehicle: other) 105 % of control; (dose: 150.0 mg/kg/injection, schedule: Q01DX001 (ip), vehicle: other) 97 % of control; (dose: 300.0 mg/kg/injection, schedule: Q01DX001 (ip), vehicle: other) 103 % of control.
